Assay results: patent US12264163B2, “Compounds and methods for treating fibrotic pathologies” (Mayo Foundation for Medical Education and Research, priority 2019, dated 2025)
Structures can show the parent of a compound that is named as a salt.

Tests used:
αSMA = αSMA intensity (fibroblast activation) in IPF patient-derived lung fibroblasts + TGFβ, dopaminergic agonist library; format: cell-based, human; conditions: 1 μM + TGFβ, 72 hours
Method: (§1) Media was then exchanged for the indicated conditions for each experiment. […] Cells or tissue sections were incubated overnight with mouse monoclonal antibody against αSMA (Sigma-Aldrich F3777), and/or a rabbit monoclonal antibody against YAP/TAZ (Cell Signaling D24E4) diluted 1:200 in PBS with 1% BSA. Cells were then washed and exposed to flourescence-conjugated secondary antibodies (Invitrogen) diluted 1:1000 and DAPI (Thermo Fisher Scientific). Images were taken with a Cytation5 (BioTek) microscope. For scoring αSMA positive cells (FIG. 12), an observer blinded to the treatment conditions counted αSMA-positive cells using a visual threshold for bright fibrous staining; a minimum of 200 cells was counted for each condition. YAP/TAZ localization was quantified (FIGS. 6-10, 24-26, and 29-30) using Gen5 (Biotek) software. Images were taken at 4× magnification of both DAPI and YAP/TAZ staining. […] Quantification of double positive (YAP/TAZ and αSMA) cells from lung tissue sections (FIG. 17-21) was performed similarly; however separate thresholds were established for both YAP/TAZ and αSMA. A minimum of 4000 cells was quantified for each mouse.

YAP/TAZ = YAP/TAZ nuclear localization in IPF patient-derived lung fibroblasts treated with dopaminergic agonists; format: cell-based, human; conditions: 10 μM, 2 hours
Method: IPF patient-derived lung fibroblasts cells treated 2 hours prior to fixation with diverse dopaminergic agonists (10 μM). N=4 different patient samples. % nuclear localization of YAP/TAZ was determined using automated imaging software. Scale bar represents 100 μm.
as §1

| SMILES | αSMA intensity (% of DMSO control) (αSMA; IPF-1 patient fibroblasts) | αSMA intensity (% of DMSO control) (αSMA; IPF-2 patient fibroblasts) | αSMA intensity (% of DMSO control) (αSMA; IPF-3 patient fibroblasts) | αSMA intensity (% of DMSO control) (αSMA; IPF-4 patient fibroblasts) | Nuclear localization (% of total cells) (YAP/TAZ; IPF-1 patient fibroblasts) | Nuclear localization (% of total cells) (YAP/TAZ; IPF-2 patient fibroblasts) | Nuclear localization (% of total cells) (YAP/TAZ; IPF-3 patient fibroblasts) | Nuclear localization (% of total cells) (YAP/TAZ; IPF-4 patient fibroblasts) |
| --- | --- | --- | --- | --- | --- | --- | --- | --- |
| CCCN(CCc1ccccc1)C1CCc2c(O)cccc2C1.Cl (racemic) [(±)-2-(N-phenylethyl-N-propyl)amino-5-hydroxytetralin] | 65.43 % of DMSO control | 52.77 % of DMSO control | 60.4844 % of DMSO control | 51.1 % of DMSO control | 68.85 % of total cells | 60.86 % of total cells | 68 % of total cells | 56.552 % of total cells |
| CCCN1CCO[C@@H]2c3cc(O)ccc3OC[C@H]21.Cl (racemic) [(±)-PD 128,907•HCl, (±)-PD 128,907] | 83.68 % of DMSO control | 85.45 % of DMSO control | 94.2538 % of DMSO control | 75.15 % of DMSO control | 60.13 % of total cells | 49.54 % of total cells | 78.48 % of total cells | 60.66 % of total cells |
| Br.C=CCN1CCc2c(cc(O)c(O)c2Cl)C(c2ccccc2)C1 (racemic) [(±)-SKF-82958•HBr, (±)-SKF-82958] | 11.78 % of DMSO control | 4.966 % of DMSO control | 2.428 % of DMSO control | 9.326 % of DMSO control | 29.15 % of total cells | 38 % of total cells | 38 % of total cells | 12.29 % of total cells |
| NCCc1ccc(O)cc1 [4-Hydroxyphenethylamine•HCl, 4-Hydroxyphenethylamine] |  |  |  |  | 56.52 % of total cells | 45.69 % of total cells | 76.57 % of total cells | 43.3719 % of total cells |
| Br.NC1CCc2cc(O)c(O)cc2C1 (stereo not shown) [6,7-ADTN•HBr, 6,7-ADTN] | 37.14 % of DMSO control | 4.182 % of DMSO control | 9.909 % of DMSO control | 4.888 % of DMSO control | 43.89 % of total cells | 44 % of total cells | 65.5 % of total cells | 52.65 % of total cells |
| CCCN(CCC)[C@@H]1CCc2c(OC)cccc2[C@@H]1C.O=C(O)/C=C/C(=O)O [(+)-UH 232 maleate, (+)-UH 232] | 82.91 % of DMSO control | 63.85 % of DMSO control | 85.81 % of DMSO control | 65.71 % of DMSO control | 61.9521 % of total cells | 68 % of total cells | 71.85 % of total cells | 67.27 % of total cells |
| NC[C@@H]1O[C@H](C23CC4CC(CC(C4)C2)C3)Cc2c1ccc(O)c2O [A-77636•HCl•H2O, A-77636] | 5.808 % of DMSO control | 0.7188 % of DMSO control | 0.06766 % of DMSO control | 12.43 % of DMSO control | 26.46 % of total cells | 30.88 % of total cells | 41.33 % of total cells | 37.79 % of total cells |
| C=CCN1CCc2nc(N)sc2CC1.Cl.Cl [B-HT 920•2HCl, B-HT 920] | 74.98 % of DMSO control | 58.97 % of DMSO control | 70.12 % of DMSO control | 54.23 % of DMSO control | 75.68 % of total cells | 46.9 % of total cells | 64.79 % of total cells | 76.24 % of total cells |
| CC(C)C[C@H]1C(=O)N2CCC[C@H]2[C@]2(O)O[C@](NC(=O)[C@@H]3C=C4c5cccc6[nH]c(Br)c(c56)C[C@H]4N(C)C3)(C(C)C)C(=O)N12 [Bromocriptine mesylate, Bromocriptine] |  |  |  |  | 73.03 % of total cells | 52.81 % of total cells | 64.09 % of total cells | 64.6 % of total cells |
| CN1Cc2ccccc2[C@@H]2c3cccc4[nH]cc(c34)C[C@H]21 [CY 208-243] | 21.01 % of DMSO control | 2.28 % of DMSO control | 2.611 % of DMSO control | 9.643 % of DMSO control | 20.52 % of total cells | 39.79 % of total cells | 41.17 % of total cells | 19.82 % of total cells |
| C=CCN1C[C@H](C(=O)N(CCCN(C)C)C(=O)NCC)C[C@@H]2c3cccc4[nH]cc(c34)C[C@H]21 [Cabergoline] |  |  |  |  | 57.02 % of total cells | 57.41 % of total cells | 45.95 % of total cells | 68.69 % of total cells |
| CCCN(CCC)CCc1ccc(O)c(O)c1 [Dipropyldopamine•HBr, Dipropyldopamine] | 48.72 % of DMSO control | 28.11 % of DMSO control | 40.34 % of DMSO control | 25.86 % of DMSO control | 69.18 % of total cells | 74.36 % of total cells | 65.5 % of total cells | 51.82 % of total cells |
| CCCN1CCC[C@@H]2Cc3nc(N)ncc3C[C@H]21.Cl.Cl [LY-163,502•2HCl, LY-163,502] | 88.99 % of DMSO control | 72.86 % of DMSO control | 75.3 % of DMSO control | 86.7894 % of DMSO control | 73.37 % of total cells | 60.97 % of total cells | 59.43 % of total cells | 66.49 % of total cells |
| CN1C[C@@H](NS(=O)(=O)N(C)C)C[C@@H]2c3cccc4c3c(cn4C)C[C@H]21 [Mesulergine•HCl, Mesulergine] |  |  |  |  | 37.81 % of total cells | 45.14 % of total cells | 78.625 % of total cells | 45.14 % of total cells |
| CCCN1C[C@H](CSC)C[C@@H]2c3cccc4[nH]cc(c34)C[C@H]21 [Pergolide mesylate, Pergolide] |  |  |  |  | 82.49 % of total cells | 69.37 % of total cells | 70.67 % of total cells | 65.58 % of total cells |
| c1cnc(N2CCN(Cc3ccc4c(c3)OCO4)CC2)nc1 [Piribedil•2HCl, Piribedil] |  |  |  |  | 61.58 % of total cells | 85.76 % of total cells | 59.05 % of total cells | 59.64 % of total cells |
| CCCN[C@H]1CCc2nc(N)sc2C1 [Pramipexole Dihydrochloride Monohydrate, Pramipexole] |  |  |  |  | 64.92 % of total cells | 47.65 % of total cells | 65.5 % of total cells | 58.97 % of total cells |
| Oc1cc2c(cc1O)[C@@H](c1ccccc1)CNCC2 [SKF 38393•HBr, SKF 38393] |  |  |  |  | 69.5873 % of total cells | 47.375 % of total cells | 61.33 % of total cells | 35.79 % of total cells |
